# Data: ChEMBL document CHEMBL4177750, “Imidazopyrazinones (IPYs): Non-Quinolone Bacterial Topoisomerase Inhibitors Showing Partial Cross-Resistance with Quinolones” (J Med Chem, 2018)
# Active and inactive are the calls of the source. No cut-off for these calls is given here.
# Tests used:
# [1] = tested on: Escherichia coli; assay: Antibacterial activity against ESBL producing Escherichia coli ATCC 35218 after 20 to 22 hrs; type: functional
# [2] = tested on: Escherichia coli; assay: Antibacterial activity against Escherichia coli K-12 MG1655 after 20 to 22 hrs; conditions: K-12 substr. MG1655
# [3] = tested on: Escherichia coli; assay: Antibacterial activity against tolC-deficient Escherichia coli K-12 MG1655 after 20 to 22 hrs; type: functional; conditions: K-12 substr. MG1655
# [4] = tested on: Escherichia coli; assay: Antibacterial activity against hyperpermeable Escherichia coli D22 harboring LpxC mutant after 20 to 22 hrs
# [5] = tested on: Pseudomonas aeruginosa; assay: Antibacterial activity against Pseudomonas aeruginosa PAO1 after 20 to 22 hrs; type: functional
# [6] = tested on: Pseudomonas aeruginosa; assay: Antibacterial activity against Pseudomonas aeruginosa PAO750 harboring mexAB-oprM/mexCD-oprJ/mexEF-oprN/mexXY/opmH/mexJK/pscC deletion mutant after 20 to 22 hrs; type: functional
# [7] = tested on: Staphylococcus aureus; assay: Antibacterial activity against methicillin-resistant Staphylococcus aureus ATCC 33592 after 20 to 22 hrs; type: functional
# [8] = Cytotoxicity against human HepG2 cells assessed as decrease in cell viability after 40 hrs by Celltiter Glo assay
# [9] = tested on: Escherichia coli; assay: Inhibition of DNA synthesis in tolC-deficient Escherichia coli K-12 MG1655 at MIC to 8 times MIC after 5 to 120 mins by [methyl-3H]-thymidine incorporation assay; type: functional, organism-based; conditions: K-12 substr. MG1655
# [10] = tested on: Acinetobacter baumannii; assay: Antibacterial activity against Acinetobacter baumannii BM4652 harboring adeABC/adeIJK deletion mutant after 20 to 22 hrs; type: functional
# [11] = tested on: Klebsiella pneumoniae; assay: Antibacterial activity against tolC-deficient Klebsiella pneumoniae 1161486a after 20 to 22 hrs; type: functional
# [12] = tested on: Acinetobacter baumannii; assay: Antibacterial activity against Acinetobacter baumannii BM4454 after 20 to 22 hrs; type: functional
# [13] = tested on: Klebsiella pneumoniae; assay: Antibacterial activity against Klebsiella pneumoniae 1161486 after 20 to 22 hrs; type: functional
# [14] = tested on: Staphylococcus aureus; assay: Antibacterial activity against methicillin-resistant Staphylococcus aureus ATCC 33592 after 20 to 22 hrs in presence of 50% calf fetal serum; type: functional, organism-based
# [15] = tested on: Staphylococcus aureus; assay: Antibacterial activity against methicillin-resistant Staphylococcus aureus ATCC 33592 after 20 to 22 hrs in presence of 50% mouse serum; type: functional, organism-based
# [16] = Thermodynamic aqueous solubility of the compound at pH 7.4; conditions: aqueous solution
# [17] = Apparent permeability across human Caco2 cells; conditions: Caco-2
# [18] = Drug metabolism in human liver microsomes at 5 uM after 20 mins in presence of NADPH; type: ADME, microsome; conditions: read-out: Drug metabolism
# [19] = Drug metabolism in mouse liver microsomes at 5 uM after 20 mins in presence of NADPH; type: ADME, microsome; conditions: read-out: Drug metabolism
# [20] = Drug metabolism in rat liver microsomes at 5 uM after 20 mins in presence of NADPH; type: ADME, microsome; conditions: read-out: Drug metabolism
# [21] = biological target: T1, Cytochrome P450 3A4 (Homo sapiens, UniProt P08684); assay: Inhibition of CYP3A4-mediated midazolam metabolism in human liver microsomes
# T1 sequence (P08684 whole entry): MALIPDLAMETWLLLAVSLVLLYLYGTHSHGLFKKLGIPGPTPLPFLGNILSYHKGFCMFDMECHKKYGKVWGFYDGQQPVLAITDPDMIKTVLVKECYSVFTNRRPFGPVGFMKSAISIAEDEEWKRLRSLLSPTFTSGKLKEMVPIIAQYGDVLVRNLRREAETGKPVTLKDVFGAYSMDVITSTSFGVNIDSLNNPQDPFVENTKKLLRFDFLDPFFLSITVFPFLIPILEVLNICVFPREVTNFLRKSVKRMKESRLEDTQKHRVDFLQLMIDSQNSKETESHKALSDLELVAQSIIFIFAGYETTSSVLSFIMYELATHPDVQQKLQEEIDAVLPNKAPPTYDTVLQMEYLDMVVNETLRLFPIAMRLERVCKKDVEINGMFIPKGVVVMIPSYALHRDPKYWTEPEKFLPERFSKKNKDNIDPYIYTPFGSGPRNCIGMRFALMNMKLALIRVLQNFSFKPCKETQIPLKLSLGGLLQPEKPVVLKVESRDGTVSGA
# [22] = biological target: T1, Cytochrome P450 3A4; assay: Inhibition of CYP3A4-mediated testosterone metabolism in human liver microsomes
# [23] = biological target: Voltage-gated inwardly rectifying potassium channel KCNH2 (Homo sapiens, UniProt Q12809); assay: Inhibition of human ERG transfected in CHO cells by patch clamp method
# Sequence of Voltage-gated inwardly rectifying potassium channel KCNH2 (Q12809 whole entry): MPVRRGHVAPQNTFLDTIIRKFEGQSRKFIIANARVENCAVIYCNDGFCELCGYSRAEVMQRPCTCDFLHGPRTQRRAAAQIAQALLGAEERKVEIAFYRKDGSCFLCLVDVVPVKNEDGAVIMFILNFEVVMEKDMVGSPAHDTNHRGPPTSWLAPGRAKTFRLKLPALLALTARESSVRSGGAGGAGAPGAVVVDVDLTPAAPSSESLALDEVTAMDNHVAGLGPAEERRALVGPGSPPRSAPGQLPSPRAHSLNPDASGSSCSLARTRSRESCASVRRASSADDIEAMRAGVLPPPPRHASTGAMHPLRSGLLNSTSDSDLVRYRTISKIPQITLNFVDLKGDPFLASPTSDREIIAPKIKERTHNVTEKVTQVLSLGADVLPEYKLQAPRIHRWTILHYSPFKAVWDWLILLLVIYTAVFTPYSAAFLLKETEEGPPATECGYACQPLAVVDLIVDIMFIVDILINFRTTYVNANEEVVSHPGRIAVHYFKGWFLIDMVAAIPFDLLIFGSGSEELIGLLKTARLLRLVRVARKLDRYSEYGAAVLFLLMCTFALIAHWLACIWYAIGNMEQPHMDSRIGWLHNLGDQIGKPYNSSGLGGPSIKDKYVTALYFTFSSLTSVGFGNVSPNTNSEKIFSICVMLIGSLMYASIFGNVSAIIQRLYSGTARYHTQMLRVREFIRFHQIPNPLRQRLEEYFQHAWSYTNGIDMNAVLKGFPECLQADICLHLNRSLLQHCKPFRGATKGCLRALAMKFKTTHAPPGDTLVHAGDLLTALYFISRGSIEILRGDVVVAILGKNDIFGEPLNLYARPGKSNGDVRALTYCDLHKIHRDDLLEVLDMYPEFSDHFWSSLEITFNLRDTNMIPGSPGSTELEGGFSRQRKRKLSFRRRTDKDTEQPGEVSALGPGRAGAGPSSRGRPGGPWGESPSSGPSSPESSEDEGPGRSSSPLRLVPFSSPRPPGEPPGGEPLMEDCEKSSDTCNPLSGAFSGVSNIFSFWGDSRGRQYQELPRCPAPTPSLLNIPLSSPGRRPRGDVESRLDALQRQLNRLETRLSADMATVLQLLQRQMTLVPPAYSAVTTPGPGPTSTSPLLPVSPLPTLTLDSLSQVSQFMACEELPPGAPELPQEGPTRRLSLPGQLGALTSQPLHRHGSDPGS
# [24] = Metabolic stability in mouse plasma at 1 uM after 4 hrs; type: ADME, cell-free; conditions: read-out: Stability
# [25] = Metabolic stability in rat plasma at 1 uM after 4 hrs; type: ADME, cell-free; conditions: read-out: Stability
# [26] = tested on: L5178Y; assay: Genotoxicity in mouse L5178Y cells after 23 hrs in absence of S9 fraction by micronucleus test; type: toxicity, cell-based
# [27] = tested on: L5178Y; assay: Genotoxicity in mouse L5178Y cells after 3 hrs in presence of S9 fraction by micronucleus test; type: toxicity, cell-based; conditions: s9, 3 h
# [28] = tested on: Staphylococcus aureus; assay: Antibacterial activity against wild type Staphylococcus aureus RN4220 after 20 to 22 hrs; type: functional
# [29] = tested on: Staphylococcus aureus; assay: Antibacterial activity against Staphylococcus aureus RN4220 harboring GyrA D83N mutant after 20 to 22 hrs; type: functional
# [30] = tested on: Staphylococcus aureus; assay: Antibacterial activity against Staphylococcus aureus RN4220 harboring GyrA D83N/ParC D79N double mutant after 20 to 22 hrs; type: functional
# [31] = tested on: Staphylococcus aureus; assay: Antibacterial activity against Staphylococcus aureus RN4220 harboring GyrB D437N mutant after 20 to 22 hrs; type: functional
# [32] = tested on: Staphylococcus aureus; assay: Antibacterial activity against Staphylococcus aureus RN4220 harboring ParC S80F mutant after 20 to 22 hrs; type: functional
# [33] = tested on: Staphylococcus aureus; assay: Antibacterial activity against Staphylococcus aureus RN4220 harboring ParC S80F/GyrA S84L double mutant after 20 to 22 hrs; type: functional
# [34] = tested on: Klebsiella pneumoniae; assay: Antibacterial activity against wild type Klebsiella pneumoniae 1161486 after 20 to 22 hrs; type: functional
# [35] = tested on: Klebsiella pneumoniae; assay: Antibacterial activity against Klebsiella pneumoniae 1161486 harboring GyrA S83I mutant after 20 to 22 hrs; type: functional
# [36] = tested on: Klebsiella pneumoniae; assay: Antibacterial activity against Klebsiella pneumoniae 1161486 harboring GyrA S83I/ParC S80I double mutant after 20 to 22 hrs; type: functional
# [37] = tested on: Klebsiella pneumoniae; assay: Antibacterial activity against Klebsiella pneumoniae 1161486 harboring GyrA S83F/D87V/ParC S80I triple mutant after 20 to 22 hrs; type: functional
# [38] = tested on: Escherichia coli; assay: Antibacterial activity against Escherichia coli K-12 MG1655 harboring GyrA S83L/D87N/ParC S80I triple mutant after 20 to 22 hrs; type: functional; conditions: K-12 substr. MG1655
# [39] = tested on: Staphylococcus aureus; assay: Resistance factor, ratio of MIC for Staphylococcus aureus RN4220 harboring GyrA D83N mutant to MIC for wild type Staphylococcus aureus RN4220; type: functional
# [40] = tested on: Staphylococcus aureus; assay: Resistance factor, ratio of MIC for Staphylococcus aureus RN4220 harboring GyrA D83N/ParC D79N double mutant to MIC for wild type Staphylococcus aureus RN4220; type: functional
# [41] = tested on: Staphylococcus aureus; assay: Resistance factor, ratio of MIC for Staphylococcus aureus RN4220 harboring GyrB D437N mutant to MIC for wild type Staphylococcus aureus RN4220; type: functional
# [42] = tested on: Staphylococcus aureus; assay: Resistance factor, ratio of MIC for Staphylococcus aureus RN4220 harboring ParC S80F mutant to MIC for wild type Staphylococcus aureus RN4220; type: functional
# [43] = tested on: Staphylococcus aureus; assay: Resistance factor, ratio of MIC for Staphylococcus aureus RN4220 harboring ParC S80F/GyrA S84L double mutant to MIC for wild type Staphylococcus aureus RN4220; type: functional
# [44] = tested on: Klebsiella pneumoniae; assay: Resistance factor, ratio of MIC for Klebsiella pneumoniae 1161486 harboring GyrA S83I mutant to MIC for wild type Klebsiella pneumoniae 1161486; type: functional
# [45] = tested on: Klebsiella pneumoniae; assay: Resistance factor, ratio of MIC for Klebsiella pneumoniae 1161486 harboring GyrA S83I/ParC S80I double mutant to MIC for wild type Klebsiella pneumoniae 1161486; type: functional
# [46] = tested on: Klebsiella pneumoniae; assay: Resistance factor, ratio of MIC for Klebsiella pneumoniae 1161486 harboring GyrA S83F/D87V/ParC S80I triple mutant to MIC for wild type Klebsiella pneumoniae 1161486; type: functional
# [47] = tested on: Escherichia coli; assay: Resistance factor, ratio of MIC for Escherichia coli K-12 MG1655 harboring GyrA S83L/D87N/ParC S80I triple mutant to MIC for wild type Escherichia coli K-12 MG1655; type: functional, K-12 substr. MG1655
# [48] = tested on: Escherichia coli; assay: Antibacterial activity against tolC-deficient fluoroquinolones-sensitive Escherichia coli JC7623 clinical isolate harboring wild type DNA gyrase after 20 to 22 hrs
# [49] = tested on: Escherichia coli; assay: Antibacterial activity against tolC-deficient fluoroquinolones-resistant Escherichia coli W4753 clinical isolate harboring DNA gyrase S83L/D87N/ParC S80I/ParE S458A mutant after 20 to 22 hrs
# [50] = tested on: Escherichia coli; assay: Resistance factor, ratio of MIC for 4 times MIC-treated tolC-deficient Escherichia coli ATCC 25922 harboring DR76_3503 Q47H mutant to MIC for tolC-deficient Escherichia coli ATCC 25922; type: functional
# [51] = tested on: Escherichia coli; assay: Resistance factor, ratio of MIC for 4 times MIC-treated tolC-deficient Escherichia coli ATCC 25922 to MIC for tolC-deficient Escherichia coli ATCC 25922; type: functional
# [52] = biological target: DNA gyrase (Escherichia coli, UniProt P0AES4+P0AES6)
# Description: Inhibition of Escherichia coli DNA gyrase A2B2 using relaxed pNO1 as substrate
compound,measurement,setting,value
N[C@H]1CCN(c2cc3c(cc2F)n2ccnc2c(=O)n3C2CC2)C1,MIC,[1],4 µg/mL
same,MIC,[2],8 µg/mL
same,MIC,[3],< 0.125 µg/mL
same,MIC,[4],2 µg/mL
same,MIC,[5],32 µg/mL
same,MIC,[6],< 0.125 µg/mL
same,MIC,[7],8 µg/mL
same,CC50 at 40 h,[8],> 30 µM
same,inhibition,[9],Active
same,MIC,[10],4 to 8 µg/mL
same,MIC,[11],0.5 µg/mL
same,MIC,[12],> 64 µg/mL
same,MIC,[13],32 µg/mL
same,Activity,[14],Active
same,Activity,[15],Active
same,solubility thermodynamic,[16],1130 µg/mL
same,Papp,[17],0.4 ×10⁻⁶ cm/s
same,"metabolised at 20 min, 5 µM",[18],6%
same,"metabolised at 20 min, 5 µM",[19],8%
same,"metabolised at 20 min, 5 µM",[20],11%
same,IC50,[21],> 30 µM
same,IC50,[22],> 30 µM
same,IC50,[23],> 30 µM
same,"remaining at 4 h, 1 µM",[24],80 to 120%
same,"remaining at 4 h, 1 µM",[25],80 to 120%
same,Activity,[26],Toxic
same,Activity,[27],Toxic
same,MIC,[28],4 µg/mL
same,MIC,[29],4 µg/mL
same,MIC,[30],16 µg/mL
same,MIC,[31],4 µg/mL
same,MIC,[32],8 µg/mL
same,MIC,[33],16 µg/mL
same,MIC,[34],16 µg/mL
same,MIC,[35],64 µg/mL
same,MIC,[36],128 µg/mL
same,MIC,[37],64 µg/mL
same,MIC,[38],512 µg/mL
same,Ratio,[39],1
same,Ratio,[40],4
same,Ratio,[41],1
same,Ratio,[42],2
same,Ratio,[43],4
same,Ratio,[44],4
same,Ratio,[45],8
same,Ratio,[46],4
same,Ratio,[47],64
same,MIC,[48],0.125 µg/mL
same,MIC,[49],2 µg/mL
same,Ratio,[50],32
same,Ratio,[51],8
same,IC50,[52],1190 nM
